In one data set the test system is AMPK. The data set is described as follows: AMPK activation: phosphorylation of peptide AMARAA, Delfia protocol. Type of data set: biochemical. The settings on record: relative to the basal activity (100%) obtained in the absence of AMP, partially purified AMPK from rat liver. Here is the method: 25 mU of AMPK are incubated in the presence of different concentrations of AMP or of products, for 30 minutes at 30° C., in a final volume of 30 μl comprising 50 mM Hepes, 19 mM MgCl2, 125 μM ATP, 5 mM NaPPi, 1 mM EDTA, 1 mM DTT, 2 mM Na3VO4 and 25 μM of peptide AMARAA biotinyl (Biot-NH-AMARAASAAALARRR-COOH).
The phosphorylation of the peptide AMARAA is then measured according to a Delfia protocol (Perkin-Elmer), using a europium-labelled anti-phospho-serine specific antibody.
The AMPK used in this test is a partially purified protein from rat liver.
The percentage of activation is calculated relative to the basal activity (100%) obtained in the absence of AMP.

The term melting point denotes the temperature, or range, at which the solid turns liquid. As to `NC(=O)c1ncn(CCOc2ccc(F)cc2)c1O` [Example 1, 1-[2-(4-fluorophenoxy)ethyl]-5-hydroxy-1H-imidazole-4-carboxamide], the melting point came out at 204 °C.
Compound `NC(=O)c1ncn(CCOc2ccccc2)c1O` [Example 2, 5-hydroxy-1-(2-phenoxyethyl)-1H-imidazole-4-carboxamide] returned a melting point of 192 °C.
In turn, `N#Cc1ccc(OCCn2cnc(C(N)=O)c2O)cc1` [Example 3, 1-[2-(4-cyanophenoxy)ethyl]-5-hydroxy-1H-imidazole-4-carboxamide] had a melting point of 190 °C.
Compound `COC(=O)c1ccc(OCCn2cnc(C(N)=O)c2O)cc1` [Example 4, methyl 4-[2-(4-carbamoyl-5-hydroxyimidazol-1-yl)ethoxy]benzoate] had a melting point of 190 °C.
`CCOC(=O)c1ncn(CCOc2ccc(C#N)cc2)c1O` [Example 6, ethyl 5-hydroxy-1-[2-(-4-cyanophenoxy)ethyl]-1H-imidazole-4-carboxylate] gave a melting point of 190 °C.
On the same count and under the same terms, the value for `CCOC(=O)c1ncn(CCOc2ccc(F)cc2)c1O` [Example 7, ethyl 5-hydroxy-1-[2-(-4-fluorophenoxy)ethyl]-1H-imidazole-4-carboxylate] was 200 °C.
Still for that read-out and setting: under `CCOC(=O)c1ncn(CCOc2ccc(C(=O)OC)cc2)c1O` [Example 8, ethyl 5-hydroxy-1-{2-[-4(methoxycarbonyl)phenoxy]ethyl}-1H-imidazole-4-carboxylate] stands 202 °C.
On the same count and under the same terms, under `CCOC(=O)c1ncn(Cc2ccccc2)c1OC` [Example 9, ethyl 1-benzyl-5-methoxy-1H-imidazole-4-carboxylate] stands 150 to 153 °C.
Compound `NC(=O)c1c(O)ncn1Cc1ccc(F)cc1` [Example 10, 5-hydroxy-3-(4-fluorobenzyl)imidazole-4-carboxamide] showed a melting point of 230 to 234 °C.
Compound `NC(=O)c1c(O)ncn1Cc1ccc(Cl)cc1` [Example 11, 5-hydroxy-3(4-chlorobenzyl)imidazole 4-carboxamide] came in with a melting point of 206 to 212 °C.
The same measure, in the same setting: under `CCOC(=O)c1ccc(Cn2cnc(O)c2C(N)=O)cc1` [Example 12, 5-hydroxy-3-[4-(ethoxycarbonyl)benzyl]imidazole-4-carboxamide] stands 266 to 268 °C.
`NC(=O)c1c(O)ncn1-c1ccccc1` [Example 13, 5-hydroxy-3-phenylimidazole-4-carboxamide] yielded a melting point of 182 °C.
Same read-out and setting: under `NC(=O)c1c(O)ncn1CCOc1ccc(F)cc1` [Example 15, 3-[2-(4-fluorophenoxy)ethyl]-5-hydroxy-3H-imidazole-4-carboxamide] stands 230 °C; under `N#Cc1ccc(OCCn2cnc(O)c2C(N)=O)cc1` [Example 16, 3-[2-(4-cyanophenoxy)ethyl]-5-hydroxy-3H-imidazole-4-carboxamide], 264 °C; under `COC(=O)c1ccc(OCCn2cnc(O)c2C(N)=O)cc1` [Example 16b is, methyl 4-[2-(5-carbamoyl-4-hydroxyimidazol-1-yl)ethoxy]-benzoate], 263 °C.
`NC(=O)c1c(O)ncn1Cc1ccc(N)cc1` [Example 18, 3-(4-aminobenzyl)-5-hydroxy-3H-imidazole-4-carboxamide]: the melting point fell in the range of 230 to 231 °C.
Compound `COc1ncn(Cc2ccc([N+](=O)[O-])cc2)c1C(N)=O` [Example 19, 3-(4-nitrobenzyl)-5-methoxy-3H-imidazole-4-carboxamide] returned a melting point of 201 to 203 °C.
`NC(=O)c1c(OCc2ccccc2)ncn1Cc1ccc([N+](=O)[O-])cc1` [Example 20, 3-(4-nitrobenzyl)-5-benzyloxy-3H-imidazole-4-carboxamide] came in with a melting point of 193 to 195 °C.
As to `COc1cccc(C(=O)Nc2ccc(Cn3cnc(O)c3C(N)=O)cc2)c1` [Example 21, 5-hydroxy-3-[4-(3-methoxybenzoylamino)benzyl]-3H-imidazole-4-carboxamide], the melting point was in the range of 257 to 259 °C.
On to `NC(=O)c1c(O)ncn1Cc1ccc(NC(=O)Nc2ccccc2)cc1` [Example 41, 5-hydroxy-3-[4-(3-phenylureido)benzyl]-3H-imidazole-4-carboxamide], for which the melting point is 232 to 235 °C.
In turn, `NC(=O)Nc1ccc(Cn2cnc(O)c2C(N)=O)cc1` [Example 42, 5-hydroxy-3-[4-ureidobenzyl]-3H-imidazole-4-carboxamide] came in with a melting point of 243 to 244 °C.
Consider `COc1ccc(NC(=O)Nc2ccc(Cn3cnc(O)c3C(N)=O)cc2)cc1` [Example 43, 5-hydroxy-3-{4-[3-(4-methoxyphenyl)ureido]benzyl}-3H-imidazole-4-carboxamide], for which the “% Activation at 200 μM” value in the data set with AMPK is 229%.
In the case of `NC(=O)c1c(O)ncn1Cc1ccc(NC(=O)Nc2ccc(Cl)cc2)cc1` [Example 44, 5-hydroxy-3-{4-[3-(4-chlorophenyl)ureido]benzyl}-3H-imidazole-4-carboxamide], in the data set with AMPK, the “% Activation at 200 μM” value is on record as 147%.
As for `NC(=O)c1c(O)ncn1Cc1ccc(NC(=O)Nc2cccc3ccccc23)cc1` [Example 47, 5-hydroxy-3-[4-(3-naphthalen-1-ylureido)benzyl]-3H-imidazole-4-carboxamide], in the data set with AMPK, the “% Activation at 200 μM” value was 184%.
Turning to `CCc1ccc(NC(=O)Nc2ccc(Cn3cnc(O)c3C(N)=O)cc2)cc1` [Example 56, 5-hydroxy-3-{4-[3-(4-ethylphenyl)ureido]benzyl}-3H-imidazole-4-carboxamide], the “% Activation at 200 μM” value in the data set with AMPK was determined as 289%.
In the case of `CSc1ccc(NC(=O)Nc2ccc(Cn3cnc(O)c3C(N)=O)cc2)cc1` [Example 58, 5-hydroxy-3-{4-[3-(4-methylsulfanylphenyl)ureido]benzyl}-3H-imidazole-4-carboxamide], the “% Activation at 200 μM” value in the data set with AMPK is reported as 311%.
Compound `NC(=O)c1c(O)ncn1Cc1ccc(NC(=O)Nc2cccc(C(=O)O)c2)cc1` [Example 70, 3-{3-[4-(5-carbamoyl-4-hydroxyimidazol-1-ylmethyl)phenyl]ureido}benzoic acid] came in with a melting point of 218 to 220 °C.

Values taken from patent US8329738B2, “Use of AMPK-activating imidazole derivatives, preparation process therefor and pharmaceutical compositions comprising them” (Merck Patent Gesellschaft mit Beschränkter Haftung, priority 2006, dated 2012).
